Molecular target: not listed separately
Test: (§1) Pseudo-first order rate constant for inhibition of thiol-dependent papain enzyme

**Q.** With `CN(N=O)c1cc(O)ccc1O` [DEPHOSTATIN] as the molecule, how does the Ki read?
**A.** 0.328 min⁻¹

**Q.** For `CN(C)c1ccc(N(C)N=O)cc1`, which Ki is on record?
**A.** 0.243 min⁻¹

**Q.** With `CN(N=O)c1ccc(O)cc1` as the molecule, how does the Ki read?
**A.** 0.009 min⁻¹

Molecular target: T1, Papain (Carica papaya, UniProt P00784)
T1 sequence (P00784 whole entry): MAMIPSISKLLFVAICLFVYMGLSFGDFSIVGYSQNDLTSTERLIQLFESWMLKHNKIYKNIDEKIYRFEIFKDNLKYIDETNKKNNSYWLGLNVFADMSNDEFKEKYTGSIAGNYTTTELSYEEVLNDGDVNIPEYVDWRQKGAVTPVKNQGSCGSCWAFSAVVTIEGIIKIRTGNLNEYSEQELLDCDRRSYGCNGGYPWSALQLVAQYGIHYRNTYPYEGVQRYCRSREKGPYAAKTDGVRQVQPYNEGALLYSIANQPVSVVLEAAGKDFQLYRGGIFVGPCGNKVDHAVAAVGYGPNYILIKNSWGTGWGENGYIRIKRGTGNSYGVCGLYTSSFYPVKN
Test: as §1

**Q.** For `CN(N=O)c1ccccc1O`, which “pseudo-first-order inhibition rate constant” value is on record?
**A.** 0.011 min⁻¹

**Q.** For `CN(N=O)c1cccc(O)c1`, which “pseudo-first-order inhibition rate constant” value is on record?
**A.** 0.036 min⁻¹

**Q.** Which “pseudo-first-order inhibition rate constant” value does the source give for `CN(N=O)c1ccccc1` here?
**A.** 0.057 min⁻¹

**Q.** Which “pseudo-first-order inhibition rate constant” value does the source give for `CN(N=O)c1ccccc1[N+](=O)[O-]` here?
**A.** 0.026 min⁻¹

**Q.** With `CN(N=O)c1ccc(Cl)cc1` as the molecule, how does the “pseudo-first-order inhibition rate constant” value read?
**A.** 0.017 min⁻¹
